The source made the active and inactive calls.
What was measured:
Protein Rev = Protein Rev (Human immunodeficiency virus type 1 group M subtype B (isolate HXB2)(HIV-1), UniProt P04618); test: inhibitors of Rev binding to RRE RNA, dose response, biochemical, fluorescence polarization, HIV-1 (AID 434976); design: species or system Human immunodeficiency virus 1
[1] = target: E3 ubiquitin-protein ligase XIAP (Homo sapiens, UniProt P98170); test: Counter Screen using XIAP-Bir3 for Chemical Antagonists of Bir1/2 domains of IAP-family anti-apoptotic proteins. [Related pubchem assays (depositor defined):AID1018, AID1449, AID1514, AID1638, AID1749, AID1750, AID488957, AID488963]
Chain of E3 ubiquitin-protein ligase XIAP (P98170 whole entry): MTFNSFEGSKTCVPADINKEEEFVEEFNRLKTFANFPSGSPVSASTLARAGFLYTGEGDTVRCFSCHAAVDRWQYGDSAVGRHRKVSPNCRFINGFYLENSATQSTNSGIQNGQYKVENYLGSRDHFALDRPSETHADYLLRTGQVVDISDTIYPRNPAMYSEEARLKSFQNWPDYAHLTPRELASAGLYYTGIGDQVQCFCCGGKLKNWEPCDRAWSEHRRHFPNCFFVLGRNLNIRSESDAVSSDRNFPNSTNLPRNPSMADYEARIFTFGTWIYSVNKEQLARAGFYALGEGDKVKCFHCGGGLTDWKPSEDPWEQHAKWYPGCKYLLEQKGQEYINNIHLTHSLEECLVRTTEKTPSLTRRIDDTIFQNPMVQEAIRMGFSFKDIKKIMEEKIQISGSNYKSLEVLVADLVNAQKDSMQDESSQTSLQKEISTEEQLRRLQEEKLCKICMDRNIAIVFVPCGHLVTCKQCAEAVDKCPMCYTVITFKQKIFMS

[2] = target: Female germline-specific tumor suppressor gld-1 (Caenorhabditis elegans, UniProt Q17339); test: inhibitors of GLD-1 binding to TGE RNA, dose response, biochemical, fluorescence polarization, C. elegans (AID 2802);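 further: fluorescence polarization of labeled TGE RNA bound by purified gld-1 protein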
Chain of Female germline-specific tumor suppressor gld-1 (Q17339 whole entry): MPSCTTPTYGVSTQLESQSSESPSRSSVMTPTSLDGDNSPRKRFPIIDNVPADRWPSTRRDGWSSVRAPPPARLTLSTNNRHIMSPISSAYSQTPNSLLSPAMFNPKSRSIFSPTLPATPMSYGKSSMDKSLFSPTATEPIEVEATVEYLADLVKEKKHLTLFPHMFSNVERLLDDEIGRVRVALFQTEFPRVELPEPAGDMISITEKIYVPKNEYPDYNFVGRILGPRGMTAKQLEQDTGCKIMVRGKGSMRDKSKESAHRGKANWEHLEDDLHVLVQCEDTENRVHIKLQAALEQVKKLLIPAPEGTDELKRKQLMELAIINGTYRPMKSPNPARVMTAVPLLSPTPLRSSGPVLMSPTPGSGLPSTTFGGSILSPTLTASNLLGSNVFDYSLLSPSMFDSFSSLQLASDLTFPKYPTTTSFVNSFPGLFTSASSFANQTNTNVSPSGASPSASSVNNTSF

Coagulation factor XII = target: T1, Coagulation factor XII (Homo sapiens, UniProt P00748); type: functional;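 further: activated factor XIIa alpha cleaving a fluorogenic AMC peptide substrate; inhibitor potency from loss of enzyme activity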
T1 sequence (P00748 whole entry): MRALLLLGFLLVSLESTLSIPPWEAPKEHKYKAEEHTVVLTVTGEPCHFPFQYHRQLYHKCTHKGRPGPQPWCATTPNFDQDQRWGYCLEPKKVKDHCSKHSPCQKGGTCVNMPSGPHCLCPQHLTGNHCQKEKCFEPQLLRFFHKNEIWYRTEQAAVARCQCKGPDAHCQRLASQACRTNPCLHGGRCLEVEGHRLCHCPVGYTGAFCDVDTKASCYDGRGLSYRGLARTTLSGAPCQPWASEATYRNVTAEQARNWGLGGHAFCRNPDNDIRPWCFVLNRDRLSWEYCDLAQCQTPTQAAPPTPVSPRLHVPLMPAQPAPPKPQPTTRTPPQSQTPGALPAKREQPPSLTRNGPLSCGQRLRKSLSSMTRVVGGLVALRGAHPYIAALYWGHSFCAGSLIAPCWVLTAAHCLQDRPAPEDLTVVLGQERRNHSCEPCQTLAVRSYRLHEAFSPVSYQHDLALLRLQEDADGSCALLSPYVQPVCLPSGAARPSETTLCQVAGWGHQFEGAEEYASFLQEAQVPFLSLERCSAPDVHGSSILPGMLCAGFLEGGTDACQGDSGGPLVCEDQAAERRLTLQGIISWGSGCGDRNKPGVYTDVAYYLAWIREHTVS

[3] = target: T2, Replicative DNA helicase DnaB (Mycobacterium tuberculosis, UniProt P9WMR3); test: DnaB intein splicing inhibitors, dose response, biochemical, cell-free fluorescence (AID 449749); type: functional
T2 sequence (P9WMR3 whole entry): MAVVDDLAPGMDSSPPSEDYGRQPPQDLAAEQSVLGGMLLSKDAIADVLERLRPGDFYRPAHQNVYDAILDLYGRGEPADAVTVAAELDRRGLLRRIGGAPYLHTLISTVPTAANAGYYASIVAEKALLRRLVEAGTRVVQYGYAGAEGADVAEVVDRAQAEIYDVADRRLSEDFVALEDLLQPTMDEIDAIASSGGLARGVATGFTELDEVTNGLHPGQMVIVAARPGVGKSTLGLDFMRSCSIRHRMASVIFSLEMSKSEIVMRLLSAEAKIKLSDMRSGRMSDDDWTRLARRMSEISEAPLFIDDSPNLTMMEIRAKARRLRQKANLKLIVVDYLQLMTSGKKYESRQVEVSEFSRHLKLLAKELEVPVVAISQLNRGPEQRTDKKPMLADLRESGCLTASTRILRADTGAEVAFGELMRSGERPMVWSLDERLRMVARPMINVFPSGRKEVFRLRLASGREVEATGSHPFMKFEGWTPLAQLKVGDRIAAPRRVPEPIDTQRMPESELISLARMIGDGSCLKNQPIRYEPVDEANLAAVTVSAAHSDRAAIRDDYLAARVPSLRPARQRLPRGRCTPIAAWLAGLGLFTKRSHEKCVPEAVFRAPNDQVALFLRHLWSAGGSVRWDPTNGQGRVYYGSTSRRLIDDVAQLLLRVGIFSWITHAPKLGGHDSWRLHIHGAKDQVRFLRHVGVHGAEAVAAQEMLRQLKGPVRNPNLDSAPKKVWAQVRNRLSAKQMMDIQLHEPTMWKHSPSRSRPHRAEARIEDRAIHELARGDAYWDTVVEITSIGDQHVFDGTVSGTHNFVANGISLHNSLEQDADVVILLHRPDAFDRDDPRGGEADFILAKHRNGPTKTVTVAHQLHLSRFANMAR

Protein RecA = target: T3, Protein RecA (Mycobacterium tuberculosis, UniProt P9WHJ3); test: Fluorescence Cell-Free Homogeneous Dose Retest to Identify Inhibitors of RecA-Intein Splicing Activity. [Related pubchem assays (depositor defined):AID2097, AID2223, AID489010, AID492950]; type: functional
T3 sequence (P9WHJ3 whole entry): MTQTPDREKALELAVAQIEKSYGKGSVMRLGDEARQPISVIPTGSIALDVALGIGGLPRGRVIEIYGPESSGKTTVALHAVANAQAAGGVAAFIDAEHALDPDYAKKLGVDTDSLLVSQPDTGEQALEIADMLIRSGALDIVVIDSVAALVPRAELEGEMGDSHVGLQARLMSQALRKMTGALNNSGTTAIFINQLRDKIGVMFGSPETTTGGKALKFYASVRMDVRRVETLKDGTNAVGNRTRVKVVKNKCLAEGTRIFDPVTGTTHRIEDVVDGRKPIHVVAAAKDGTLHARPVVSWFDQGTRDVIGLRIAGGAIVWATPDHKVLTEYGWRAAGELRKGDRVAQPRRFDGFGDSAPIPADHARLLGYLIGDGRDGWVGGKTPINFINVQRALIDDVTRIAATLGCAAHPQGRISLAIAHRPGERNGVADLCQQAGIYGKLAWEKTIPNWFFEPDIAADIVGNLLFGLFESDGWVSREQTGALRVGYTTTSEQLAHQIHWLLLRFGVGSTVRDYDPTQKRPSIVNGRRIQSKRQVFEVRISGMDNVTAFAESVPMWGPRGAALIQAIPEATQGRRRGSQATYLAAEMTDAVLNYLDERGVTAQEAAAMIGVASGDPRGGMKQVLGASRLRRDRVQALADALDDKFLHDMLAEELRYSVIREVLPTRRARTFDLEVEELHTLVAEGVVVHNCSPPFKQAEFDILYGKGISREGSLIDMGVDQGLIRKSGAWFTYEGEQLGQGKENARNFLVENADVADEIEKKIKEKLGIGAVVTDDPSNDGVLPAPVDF

Cannabinoid receptor 2 [4] = target: T4, Cannabinoid receptor 2 (Homo sapiens, UniProt P34972); test: SAR analysis of agonists of the Cannabinoid Receptor 2 using an Image-Based Assay - Set 3. [Related pubchem assays (depositor defined):AID2013, AID2026]; type: functional
T4 sequence (P34972 whole entry): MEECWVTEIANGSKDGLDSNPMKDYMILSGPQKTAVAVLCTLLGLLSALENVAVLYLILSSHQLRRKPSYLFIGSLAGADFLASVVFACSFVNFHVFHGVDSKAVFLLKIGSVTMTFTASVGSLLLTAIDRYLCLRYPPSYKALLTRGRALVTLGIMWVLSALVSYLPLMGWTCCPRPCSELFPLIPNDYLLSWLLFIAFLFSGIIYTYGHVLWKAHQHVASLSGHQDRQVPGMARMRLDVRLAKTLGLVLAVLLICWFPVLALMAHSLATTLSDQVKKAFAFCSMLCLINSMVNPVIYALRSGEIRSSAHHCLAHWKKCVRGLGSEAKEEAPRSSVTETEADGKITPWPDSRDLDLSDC

[5] = target: G-protein coupled receptor 55 (Homo sapiens, UniProt Q9Y2T6); test: SAR Analysis of Selective Antagonists of GPR55 using an Image-Based Assay - Set 4. [Related pubchem assays (depositor defined):AID2013, AID2026]; type: functional;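 further: antagonism of response to 5 µM lysophosphatidylinositol agonist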
Chain of G-protein coupled receptor 55 (Q9Y2T6 whole entry): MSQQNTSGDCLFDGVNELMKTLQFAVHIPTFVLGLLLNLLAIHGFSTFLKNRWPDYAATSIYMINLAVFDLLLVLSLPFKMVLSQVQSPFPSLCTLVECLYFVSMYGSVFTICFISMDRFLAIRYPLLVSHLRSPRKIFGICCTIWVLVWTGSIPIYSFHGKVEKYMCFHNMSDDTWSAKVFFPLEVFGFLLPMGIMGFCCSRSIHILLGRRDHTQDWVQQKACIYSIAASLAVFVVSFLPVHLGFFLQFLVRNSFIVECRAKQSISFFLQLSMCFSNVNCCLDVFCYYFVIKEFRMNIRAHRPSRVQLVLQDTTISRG

Cannabinoid receptor 1 [6] = target: T5, Cannabinoid receptor 1 (Homo sapiens, UniProt P21554); test: SAR analysis of agonists of the Cannabinoid Receptor 1 using an Image-Based Assay - Set 4. [Related pubchem assays (depositor defined):AID2013, AID2026]; type: functional
T5 sequence (P21554 whole entry): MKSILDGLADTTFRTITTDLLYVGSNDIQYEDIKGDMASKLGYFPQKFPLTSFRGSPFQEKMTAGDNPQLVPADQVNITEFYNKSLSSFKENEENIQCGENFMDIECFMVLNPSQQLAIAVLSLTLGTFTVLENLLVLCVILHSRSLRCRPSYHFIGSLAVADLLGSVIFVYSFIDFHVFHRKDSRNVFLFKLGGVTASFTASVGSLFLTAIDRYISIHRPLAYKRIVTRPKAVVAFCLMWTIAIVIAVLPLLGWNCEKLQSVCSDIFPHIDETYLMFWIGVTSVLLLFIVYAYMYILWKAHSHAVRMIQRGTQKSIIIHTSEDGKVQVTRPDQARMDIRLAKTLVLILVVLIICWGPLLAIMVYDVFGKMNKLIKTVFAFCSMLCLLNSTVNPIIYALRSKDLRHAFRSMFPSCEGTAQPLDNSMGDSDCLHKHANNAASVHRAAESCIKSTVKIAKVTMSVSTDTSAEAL

[7] = target: T6, G-protein coupled receptor 35 (Homo sapiens, UniProt Q9HC97); test: SAR analysis of Agonists of the GPR35 Receptor using an Image-Based Assay - Set 4. [Related pubchem assays (depositor defined):AID2013, AID2026]; type: functional
T6 sequence (Q9HC97 whole entry): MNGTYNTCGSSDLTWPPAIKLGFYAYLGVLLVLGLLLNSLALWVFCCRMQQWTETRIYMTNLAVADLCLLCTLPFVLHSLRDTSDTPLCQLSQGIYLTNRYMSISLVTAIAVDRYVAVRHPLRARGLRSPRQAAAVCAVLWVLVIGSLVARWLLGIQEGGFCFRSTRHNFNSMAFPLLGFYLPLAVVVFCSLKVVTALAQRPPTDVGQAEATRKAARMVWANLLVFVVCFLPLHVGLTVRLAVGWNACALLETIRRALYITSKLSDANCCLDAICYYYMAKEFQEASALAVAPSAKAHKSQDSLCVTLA

[8] = target: T6, G-protein coupled receptor 35; test: SAR analysis of Antagonists of the GPR35 Receptor using an Image-Based Assay - Set 6. [Related pubchem assays (depositor defined):AID2013, AID2026]; type: functional
Cannabinoid receptor 2 [9] = target: T4, Cannabinoid receptor 2; test: SAR analysis of antagonists of the Cannabinoid Receptor 2 using an Image-Based Assay - Set 3. [Related pubchem assays (depositor defined):AID2013, AID2026]; type: functional
Cannabinoid receptor 1 [10] = target: T5, Cannabinoid receptor 1; test: SAR analysis of antagonists of the Cannabinoid Receptor 1 using an Image-Based Assay - Set 4. [Related pubchem assays (depositor defined):AID2013, AID2026]; type: functional
HEK293 [11] = test: cells; type: functional, cell-based; settings: Homo sapiens
Beta-galactosidase = Beta-galactosidase (Escherichia coli, UniProt Q8VNN2); test: beta-galactosidase enzyme inhibitors and activators, dose response, artefact control for CCR6 antagonist project, biochemical, E. coli enzyme, set 3 (AID 504712); type: functional
Chain of Beta-galactosidase (Q8VNN2 whole entry, the tested form may be a part): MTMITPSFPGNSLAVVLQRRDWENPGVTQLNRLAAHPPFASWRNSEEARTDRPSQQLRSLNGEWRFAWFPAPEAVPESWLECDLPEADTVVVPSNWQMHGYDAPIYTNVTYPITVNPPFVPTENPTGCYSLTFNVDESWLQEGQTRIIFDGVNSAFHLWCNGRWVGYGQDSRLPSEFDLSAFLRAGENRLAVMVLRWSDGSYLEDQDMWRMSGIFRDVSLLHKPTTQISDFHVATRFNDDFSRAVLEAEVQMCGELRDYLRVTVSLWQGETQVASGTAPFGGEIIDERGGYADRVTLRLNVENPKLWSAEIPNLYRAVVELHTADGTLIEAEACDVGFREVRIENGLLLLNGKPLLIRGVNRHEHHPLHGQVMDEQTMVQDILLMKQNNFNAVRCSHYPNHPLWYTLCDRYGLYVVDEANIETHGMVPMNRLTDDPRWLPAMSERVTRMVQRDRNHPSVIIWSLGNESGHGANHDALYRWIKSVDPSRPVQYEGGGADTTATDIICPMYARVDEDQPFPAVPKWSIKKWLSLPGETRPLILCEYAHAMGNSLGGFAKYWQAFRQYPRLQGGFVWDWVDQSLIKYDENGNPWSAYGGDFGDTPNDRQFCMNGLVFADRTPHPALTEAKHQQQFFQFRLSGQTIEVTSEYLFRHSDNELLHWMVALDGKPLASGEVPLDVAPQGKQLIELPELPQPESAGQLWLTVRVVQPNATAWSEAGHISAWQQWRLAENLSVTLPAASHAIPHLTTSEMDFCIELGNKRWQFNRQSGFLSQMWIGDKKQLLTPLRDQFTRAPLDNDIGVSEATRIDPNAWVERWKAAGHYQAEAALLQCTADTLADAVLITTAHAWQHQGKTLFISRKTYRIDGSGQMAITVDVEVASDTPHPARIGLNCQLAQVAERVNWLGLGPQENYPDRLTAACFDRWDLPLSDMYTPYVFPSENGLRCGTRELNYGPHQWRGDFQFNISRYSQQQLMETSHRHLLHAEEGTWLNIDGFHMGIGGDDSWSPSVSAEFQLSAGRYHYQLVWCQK

[12] = target: Nucleotide-binding oligomerization domain-containing protein 2 (Homo sapiens, UniProt Q9HC29); test: NOD2 signaling inhibitors, cell-based, luminescence, uHTS, HEK293 (AID 1566); type: functional
Chain of Nucleotide-binding oligomerization domain-containing protein 2 (Q9HC29 whole entry, the tested form may be a part): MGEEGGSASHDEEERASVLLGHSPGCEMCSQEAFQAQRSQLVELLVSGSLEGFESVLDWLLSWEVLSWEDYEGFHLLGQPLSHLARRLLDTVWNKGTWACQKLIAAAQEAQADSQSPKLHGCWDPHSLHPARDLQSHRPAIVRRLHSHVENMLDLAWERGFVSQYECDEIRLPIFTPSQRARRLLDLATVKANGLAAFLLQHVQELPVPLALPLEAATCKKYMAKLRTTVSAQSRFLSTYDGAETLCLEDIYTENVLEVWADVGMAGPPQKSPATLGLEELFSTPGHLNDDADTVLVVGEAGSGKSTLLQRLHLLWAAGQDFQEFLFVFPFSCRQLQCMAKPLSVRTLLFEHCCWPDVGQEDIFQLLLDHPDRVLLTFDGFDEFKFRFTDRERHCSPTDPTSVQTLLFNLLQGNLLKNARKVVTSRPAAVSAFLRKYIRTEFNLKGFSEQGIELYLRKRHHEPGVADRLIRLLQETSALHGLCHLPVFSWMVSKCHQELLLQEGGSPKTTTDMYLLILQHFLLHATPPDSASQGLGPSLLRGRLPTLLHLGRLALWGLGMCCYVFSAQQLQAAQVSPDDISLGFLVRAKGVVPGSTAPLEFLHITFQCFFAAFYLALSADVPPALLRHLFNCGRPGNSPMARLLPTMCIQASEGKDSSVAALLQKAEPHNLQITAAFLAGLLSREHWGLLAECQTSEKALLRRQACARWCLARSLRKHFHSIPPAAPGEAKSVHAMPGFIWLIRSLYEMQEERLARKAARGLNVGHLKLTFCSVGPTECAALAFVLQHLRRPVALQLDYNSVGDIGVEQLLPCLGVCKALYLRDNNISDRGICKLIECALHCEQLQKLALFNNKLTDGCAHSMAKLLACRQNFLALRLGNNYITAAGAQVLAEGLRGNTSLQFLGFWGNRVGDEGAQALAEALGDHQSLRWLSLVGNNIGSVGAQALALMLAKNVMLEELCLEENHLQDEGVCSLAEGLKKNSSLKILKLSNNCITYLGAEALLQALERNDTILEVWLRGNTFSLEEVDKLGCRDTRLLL

HEK293 [13] = test: cells; type: functional, cell-based; settings: Homo sapiens; remark: listed apart in the source
HEK293 [14] = test: NOD2 signaling inhibitors in MDP-stimulated cells, cell-based, uHTS, luminescence (AID 2001); type: functional; settings: Homo sapiens
HEK293 [15] = test: NOD1 signaling inhibitors, primary screen, cell-based, luminescence, uHTS (AID 1578); type: functional; settings: Homo sapiens
HEK293 [16] = test: cells; type: functional, cell-based; settings: Homo sapiens; remark: listed apart in the source
[17] = target: T7, Ubiquitin-conjugating enzyme E2 N (Homo sapiens, UniProt P61088); type: functional
T7 sequence (P61088 whole entry): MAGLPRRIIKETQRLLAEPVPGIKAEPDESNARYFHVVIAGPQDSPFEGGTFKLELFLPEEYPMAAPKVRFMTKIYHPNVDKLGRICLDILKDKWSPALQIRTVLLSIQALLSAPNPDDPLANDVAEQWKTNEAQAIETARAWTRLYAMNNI

[18] = target: T7, Ubiquitin-conjugating enzyme E2 N; type: functional; remark: listed apart in the source
Bcl-2-related protein A1 = target: T8, Bcl-2-related protein A1 (Mus musculus, UniProt Q07440); type: functional;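 further: confirmatory dose–response counterscreen on Bfl-1, used to check hits from a UBC13 polyubiquitin inhibitor campaign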
T8 sequence (Q07440 whole entry): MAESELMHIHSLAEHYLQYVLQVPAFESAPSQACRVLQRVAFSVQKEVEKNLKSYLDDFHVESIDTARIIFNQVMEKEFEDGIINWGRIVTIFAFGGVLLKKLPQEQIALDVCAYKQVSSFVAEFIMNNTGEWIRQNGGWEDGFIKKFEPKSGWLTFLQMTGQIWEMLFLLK

Chain of Protein Rev (P04618 whole entry): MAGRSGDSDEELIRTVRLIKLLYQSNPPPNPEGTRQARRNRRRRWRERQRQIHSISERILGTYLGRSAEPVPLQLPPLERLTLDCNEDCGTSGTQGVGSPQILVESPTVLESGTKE

With `COCCOC(=O)c1sc(=S)n(CCOC)c1N` the IC50 (Protein Rev) was 11.1 µM (not active), the IC50 [1] was 0.699 µM (active) and the IC50 [2] was 5.31 µM (active).

`CC(=O)Nc1ccc(OC(=O)c2ccco2)cc1` was tested, and the IC50 (Coagulation factor XII) was > 50 µM (inactive), the AC50 [3] was 93.9 µM (active) and the EC50 (Protein RecA) was 12.1 µM (active).

In the case of `Cc1ccc2nc3c(cc(C(=O)NC4CCCC4)c(=N)n3C3CCCC3)c(=O)n2c1`, the EC50 (Cannabinoid receptor 2 [4]) was > 32 µM (inactive), the IC50 [5] was 8.18 µM (active) and the EC50 (Cannabinoid receptor 1 [6]) was > 32 µM (inactive). The EC50 [7] was > 32 µM (inactive), the IC50 [8] was > 32 µM (inactive) and the IC50 (Cannabinoid receptor 2 [9]) was > 32 µM (inactive). For the same compound, the IC50 (Cannabinoid receptor 1 [10]) was 24.9 µM (inactive).

`O=C(NC(=S)N1CCN(Cc2ccc3c(c2)OCO3)CC1)c1cccc(Br)c1` was tested, and the IC50 (HEK293 [11]) was 16.1 µM (active), the IC50 (Beta-galactosidase) was > 66.6 µM (inactive) and the EC50 [12] was > 20 µM (inactive). The IC50 (HEK293 [13]) was > 20 µM (inactive), the IC50 (HEK293 [14]) was 6.54 µM (inactive) and the EC50 (HEK293 [15]) was 7.03 µM (active). For the same compound, the IC50 (HEK293 [16]) was > 20 µM (inactive).

`O=C(CCNC(=O)Cn1ccc2ccccc2c1=O)NCCN1CCN(c2cccc(Cl)c2)CC1` was tested, and the IC50 [17] was 4.45 µM (active), the IC50 [18] was 8.08 µM (active) and the IC50 (Bcl-2-related protein A1) was > 20 µM (inactive).

`Cc1nnc(-c2cccc(Br)c2)c2cn(-c3ccccc3)nc12` was tested, and the EC50 (Cannabinoid receptor 2 [4]) was > 32 µM (inactive), the IC50 [5] was 3.95 µM (active) and the EC50 (Cannabinoid receptor 1 [6]) was > 32 µM (inactive). The EC50 [7] was > 32 µM (inactive), the IC50 [8] was > 32 µM (inactive) and the IC50 (Cannabinoid receptor 2 [9]) was 10.4 µM (inactive). The IC50 (Cannabinoid receptor 1 [10]) was 1.68 µM (active).
